According to patent US6794385B2, “Benzoxazine derivatives useful as integrin receptor antagonists” (Pharmacia & Upjohn, S.p.A., priority 2001, dated 2004):

Assays:
human αvβ3 integrin = biological target: T1, human αvβ3 integrin (Homo sapiens, UniProt P05106+P06756); test: αvβ3-vitronectin binding assay (solid phase); conditions: for IC50: inhibition of biotinylated vitronectin (5 nM) binding to coated αvβ3, read-out: αvβ3 (IC50 μmol); for ratio between αIIbβ3 and αvβ3 inhibiting activity: selectivity, αIIbβ3 IC50 over αvβ3 IC50
T1 construct: was purified from human placenta; from tissue; host or cells: human placenta
T1 sequence (P06756 31-889 limits assumed): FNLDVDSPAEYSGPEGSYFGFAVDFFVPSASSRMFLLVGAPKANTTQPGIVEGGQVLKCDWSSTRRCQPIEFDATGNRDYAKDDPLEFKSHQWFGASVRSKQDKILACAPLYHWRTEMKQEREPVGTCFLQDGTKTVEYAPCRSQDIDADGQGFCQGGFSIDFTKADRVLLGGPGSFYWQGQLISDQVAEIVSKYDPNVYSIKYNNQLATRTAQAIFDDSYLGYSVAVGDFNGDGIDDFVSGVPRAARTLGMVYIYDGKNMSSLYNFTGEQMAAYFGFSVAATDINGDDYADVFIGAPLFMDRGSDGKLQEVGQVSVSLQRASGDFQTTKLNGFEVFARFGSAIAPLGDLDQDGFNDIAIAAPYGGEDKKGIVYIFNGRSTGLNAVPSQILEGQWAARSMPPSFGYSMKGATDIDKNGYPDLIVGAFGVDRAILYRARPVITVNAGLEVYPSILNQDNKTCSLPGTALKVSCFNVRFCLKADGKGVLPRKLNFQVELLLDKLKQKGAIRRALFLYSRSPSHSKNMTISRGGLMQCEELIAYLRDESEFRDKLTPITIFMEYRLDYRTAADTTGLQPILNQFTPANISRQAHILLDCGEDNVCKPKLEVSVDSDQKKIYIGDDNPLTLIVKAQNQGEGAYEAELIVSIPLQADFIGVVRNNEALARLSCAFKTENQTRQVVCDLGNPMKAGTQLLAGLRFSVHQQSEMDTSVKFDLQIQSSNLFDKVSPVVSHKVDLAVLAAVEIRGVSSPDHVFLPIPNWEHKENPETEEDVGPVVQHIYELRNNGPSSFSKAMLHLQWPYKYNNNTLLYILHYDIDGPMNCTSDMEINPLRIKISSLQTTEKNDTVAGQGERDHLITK
T1 sequence (P06756 891-1048 partner limits assumed): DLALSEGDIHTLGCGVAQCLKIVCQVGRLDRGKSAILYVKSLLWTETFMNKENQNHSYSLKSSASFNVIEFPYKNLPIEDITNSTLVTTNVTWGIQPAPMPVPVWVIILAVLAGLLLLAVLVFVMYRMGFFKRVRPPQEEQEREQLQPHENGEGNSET
T1 sequence (P05106 27-788): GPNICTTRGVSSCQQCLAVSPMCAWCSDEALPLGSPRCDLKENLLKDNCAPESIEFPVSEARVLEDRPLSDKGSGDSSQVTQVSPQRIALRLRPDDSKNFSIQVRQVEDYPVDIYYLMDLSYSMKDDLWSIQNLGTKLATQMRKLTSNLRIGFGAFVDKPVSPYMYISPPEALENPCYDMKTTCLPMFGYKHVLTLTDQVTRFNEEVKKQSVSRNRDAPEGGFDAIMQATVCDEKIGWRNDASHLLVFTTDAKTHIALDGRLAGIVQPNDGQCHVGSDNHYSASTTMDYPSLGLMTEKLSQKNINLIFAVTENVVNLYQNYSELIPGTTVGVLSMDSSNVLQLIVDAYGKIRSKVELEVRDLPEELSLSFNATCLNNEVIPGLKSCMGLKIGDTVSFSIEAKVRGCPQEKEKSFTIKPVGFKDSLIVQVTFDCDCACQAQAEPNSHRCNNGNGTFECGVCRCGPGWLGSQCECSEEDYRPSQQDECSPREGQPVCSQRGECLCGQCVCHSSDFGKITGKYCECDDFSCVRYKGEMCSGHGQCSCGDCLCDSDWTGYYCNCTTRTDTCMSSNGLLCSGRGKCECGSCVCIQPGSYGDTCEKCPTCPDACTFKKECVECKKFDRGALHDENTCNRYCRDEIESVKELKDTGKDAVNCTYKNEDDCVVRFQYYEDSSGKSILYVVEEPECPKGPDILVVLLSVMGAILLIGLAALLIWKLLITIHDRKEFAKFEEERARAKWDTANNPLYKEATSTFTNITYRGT
Protocol: A solid phase assay for the study of αvβ3-vitronectin binding was set up on the basis of already published methods (Wong et al., Molecular Pharmacology 50: 529-537, 1996; Brooks et al., Cell 85: 683-693, 1996). The human αvβ3 integrin was diluted into coating buffer (CB) containing 150 mM NaCl, 1 mM CaCl2, 1 mM MgCl2, 1 mM MnCl2, 20 mM TRIS, pH 7.4 at a concentration of 1.5 μg/ml. Into 96-well plates, 50 μl of the diluted integrin were added and allowed to bind to the plate walls overnight at 4° C. Next day, the assay plates were emptied and 100 μl of blocking buffer (CB buffer with 3% BSA) were added to each well for 45 min at 37° C. After the incubation, the plates were washed three times with 100 μl assay buffer (AB, CB buffer with 0.1% BSA). Serial 1:1 dilution (25 μl/well) of the test compounds were added to the plates, starting from 10 mM solutions in 100% DMSO diluted to 100 µM in AB. The binding reaction was started by addition (25 μl/well) of 10 nM biotinylated vitronectin (final concentration: 5 nM), and lasted 30 min at 37° C. The concentration range of the tested compounds spanned from 50 to 0.0005 μM. At the end of the co-incubation, the assay plates were washed as before and 70 μl of a 1:1000 AB dilution of peroxydase-conjugated streptavidin were added per well and were allowed to react for 45 min at 37° C. Then, the plates were washed as described and 50 μl of ready to use Turbo-TMB substrate for peroxydase were added to each well. After 30 minutes incubation at room temperature, the colour development was stopped with 50 μl sulphuric acid 0.38 M and the plates were read at a wavelength of 450 nm with a Packard plate reader. The values obtained were analyzed by four parameters curve fit in the computer program GraphPad Prism, after normalization by a maximum binding control (Bmax) detected in wells where no competitor was added, and a minimum binding control (NSB) detected in wells where no integrin was coated. Under standard assay conditions, A450 was never under 1.0 for Bmax, and around 0.15 for NSB.
Human vitronectin receptor ([…]v[…]3) was purified from human placenta (Pytela et al., Methods in Enzymology, 144: 475-489, 1987). Turbo-TMB was from PIERCE (34022). BSA (A4503), Vitronectin (V8379), RGD peptide (G4144) and all generic reagents were from SIGMA. Vitronectin was biotinylated according to the procedure indicated in the NHS biotinylation kit from PIERCE (21420). Horseradish peroxydase-streptavidin was from Amersham (RPN1231). 96-well plates were from Costar (#3690, EIA/RIA plate, ½ area flat bottom, high binding).

[1] = biological target: T2, αIIbβ3 integrin (human fibrinogen receptor) (Homo sapiens, UniProt P05106+P08514); test: αIIbβ3-fibrinogen binding assay (solid phase); conditions: inhibition of biotinylated fibrinogen (10 nM) binding to coated αIIbβ3; read-out: αIIbβ3 (IC50 μmol)
T2 construct: was purified from human platelets; from tissue; host or cells: human platelets
T2 sequence (P08514 32-887 limits assumed): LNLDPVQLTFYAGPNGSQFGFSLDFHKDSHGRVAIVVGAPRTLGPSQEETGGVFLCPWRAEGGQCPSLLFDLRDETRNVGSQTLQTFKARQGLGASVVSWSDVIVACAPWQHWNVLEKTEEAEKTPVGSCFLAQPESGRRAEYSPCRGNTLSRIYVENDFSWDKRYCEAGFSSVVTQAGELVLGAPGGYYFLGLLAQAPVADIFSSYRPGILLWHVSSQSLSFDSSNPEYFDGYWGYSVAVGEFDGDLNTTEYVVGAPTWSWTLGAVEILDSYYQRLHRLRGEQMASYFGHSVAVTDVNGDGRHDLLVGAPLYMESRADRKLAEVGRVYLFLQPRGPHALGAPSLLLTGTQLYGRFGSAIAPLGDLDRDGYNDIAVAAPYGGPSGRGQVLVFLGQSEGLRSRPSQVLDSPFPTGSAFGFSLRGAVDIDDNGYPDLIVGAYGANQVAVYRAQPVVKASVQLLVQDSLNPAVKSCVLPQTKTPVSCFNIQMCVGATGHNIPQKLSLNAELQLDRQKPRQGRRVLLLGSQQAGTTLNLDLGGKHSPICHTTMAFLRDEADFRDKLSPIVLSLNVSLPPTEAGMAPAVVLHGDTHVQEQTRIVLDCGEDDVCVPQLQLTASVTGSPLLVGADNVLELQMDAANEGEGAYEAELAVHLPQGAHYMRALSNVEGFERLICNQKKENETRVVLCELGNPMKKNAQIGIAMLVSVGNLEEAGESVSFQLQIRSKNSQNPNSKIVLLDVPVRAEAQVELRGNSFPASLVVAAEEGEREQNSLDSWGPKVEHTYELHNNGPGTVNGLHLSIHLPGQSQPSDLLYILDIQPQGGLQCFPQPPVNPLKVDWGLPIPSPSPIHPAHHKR
T2 sequence (P08514 891-1039 partner limits assumed): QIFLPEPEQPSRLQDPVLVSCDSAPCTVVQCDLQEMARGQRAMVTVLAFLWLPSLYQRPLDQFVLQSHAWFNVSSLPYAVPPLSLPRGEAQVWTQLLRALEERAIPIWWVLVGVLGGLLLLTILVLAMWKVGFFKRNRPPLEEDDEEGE
T2 sequence (P05106 27-788): as the sequence (P05106 27-788) above
Protocol: A solid phase assay for the study of αIIbβ3-fibrinogen binding was set up on according to the method described for αvβ3. αIIbβ3 integrin was diluted into coating buffer (CB) containing 150 mM NaCl, 1 mM CaCl2, 1 mM MgCl2, 1 mM MnCl2, 20 mM TRIS, pH 7.4 at a concentration of 3 μg/ml. Into 96-well plates, 50 μl of the diluted integrin were added and allowed to bind to the plate walls overnight at 4° C. Next day, the assay plates were emptied and 100 μl of blocking buffer (CB buffer with 3% BSA) were added to each well for 45 min at 37° C. […] Then, the plates were washed as described and 50 μl of ready to use Turbo-TMB substrate for peroxydase were added to each well. After 30 minutes incubation at room temperature, the colour development was stopped with 50 μl sulphuric acid 0.38 M and the plates were read at a wavelength of 450 nm with a Packard plate reader. The values obtained were analysed by four parameters curve fit with the computer program GraphPad Prism, after normalization by a maximum binding control (Bmax) detected in wells where no competitor was added, and a minimum binding control (NSB) detected in wells where no integrin was coated. […]

IC50 (human αvβ3 integrin) [µM] | ratio between αIIbβ3 and αvβ3 inhibiting activity (human αvβ3 integrin) | IC50 [1] [µM] | Structure (SMILES)
0.024 ± 0.009 | about 1,000 | 27 | O=C(O)CC1CN(c2ccccc2)c2cc(NC(=O)CCCNc3ccccn3)ccc2O1 (stereo not drawn) [Compound 1b, (4-phenyl-6-{[4-(2-pyridinylamino)butanoyl]amino}-3,4-dihydro-2H-1,4-benzoxazin-2-yl)acetic acid]
0.044 ± 0.025 | about 1,000 | 30 | O=C(O)CC1CN(c2ccccc2)c2cc(NC(=O)CCNc3ccccn3)ccc2O1 (stereo not drawn) [Compound 1a, (4-phenyl-6-{[3-(2-pyridinylamino)propanoyl]amino}-3,4-dihydro-2H-1,4-benzoxazin-2-yl)acetic acid]
